Values quoted from earlier work, collected in patent publication US20220257490A1, “METHOD FOR DYEING KERATINOUS MATERIAL, COMPRISING THE USE OF AN ORGANOSILICON COMPOUND, A COLORED EFFECT PIGMENT AND A FILM-FORMING POLYMER IV” (Henkel AG & Co. KGaA, priority 2019, published 2022).

Details: 25° C.

| solubility in water (in words) | SMILES | solubility in water |
| --- | --- | --- |
| highly soluble in water | O=C([O-])C1=NN(c2ccc(S(=O)(=O)[O-])cc2)C(=O)C1N=Nc1ccc(S(=O)(=O)[O-])cc1.[Na+].[Na+].[Na+] (stereo not shown) [Acid Yellow 23, trisodium salt of 4,5-dihydro-5-oxo-1-(4-sulfophenyl)-4-((4-sulfophenyl)azo)-1H-pyrazole-3-carboxylic acid] | – |
| – | O=C([O-])c1c(Cl)c(Cl)c(Cl)c(Cl)c1-c1c2c(Br)cc(=O)c(Br)c-2oc2c(Br)c(O)cc(Br)c12.O=C([O-])c1c(Cl)c(Cl)c(Cl)c(Cl)c1-c1c2c(Br)cc(=O)c(Br)c-2oc2c(Br)c(O)cc(Br)c12.[Na+].[Na+] [Acid Red 92, disodium salt of 3,4,5,6-tetrachloro-2-(1,4,5,8-tetrabromo-6-hydroxy-3-oxoxanthen-9-yl)benzoic acid] | greater than 10 g/L |
| – | O=S(=O)([O-])c1ccc(N=Nc2c(O)ccc3ccccc23)cc1.[Na+] [Acid Orange 7, sodium salt of 4-[(2-hydroxy-1-naphthyl)azo]benzene sulphonate] | more than 7 g/L |
| – | Nc1cc(S(=O)(=O)[O-])cc2cc(S(=O)(=O)[O-])c(N=Nc3ccccc3)c(O)c12.[Na+].[Na+] [Acid Red 33, disodium salt of 5-amino-4-hydroxy-3-(phenylazo)-naphthalene-2,7-disulphonate] | 2.5 g/L |
